Assays:
Experiment in all cases: relative viability (nuclei count vs DMSO), 5 days (fraction); higher = more cells survive
TPCA-1 + Tozasertib = compound: C1=CC(=CC=C1C2=CC(=C(S2)NC(=O)N)C(=O)N)F [TPCA-1] + Cc1cc(Nc2cc(N3CCN(C)CC3)nc(Sc3ccc(NC(=O)C4CC4)cc3)n2)n[nH]1 [Tozasertib] (partner 0.1 µM)
Method in brief: (§1)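 One day after seeding in 1536-well plates, lung cancer cell lines were dosed by pin tool. Dosing was either single-drug or a fixed anchor-drug dose plus five library-drug doses (not always all listed) in √10 steps. After 5 days, nuclei were stained in one fix-and-stain step and counted on 4× images, and relative viability is the nuclei count of treated wells over that of vehicle wells, given as the median of duplicate plates.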

[1] = compound: C[C@]12O[C@H](C[C@]1(O)CO)n1c3ccccc3c3c4c(c5c6ccccc6n2c5c31)CNC4=O [Lestaurtinib] + Nc1ncn([C@H]2C[C@H](O)[C@@H](CO)O2)c(=O)n1 [Decitabine] (partner 2 µM)
Method in brief: as §1

Lestaurtinib + Alpelisib = compound: C[C@]12O[C@H](C[C@]1(O)CO)n1c3ccccc3c3c4c(c5c6ccccc6n2c5c31)CNC4=O [Lestaurtinib] + Cc1nc(NC(=O)N2CCC[C@H]2C(N)=O)sc1-c1ccnc(C(C)(C)C(F)(F)F)c1 [Alpelisib] (partner 2 µM)
Method in brief: as §1

[2] = compound: C[C@]12O[C@H](C[C@]1(O)CO)n1c3ccccc3c3c4c(c5c6ccccc6n2c5c31)CNC4=O [Lestaurtinib] + CC(=O)c1c(C)c2cnc(Nc3ccc(N4CCNCC4)cn3)nc2n(C2CCCC2)c1=O [Palbociclib] (partner 0.5 µM)
Method in brief: as §1

Cell Line | relative viability (TPCA-1 + Tozasertib; first compound 0.04 µM) | relative viability (TPCA-1 + Tozasertib; first compound 0.1265 µM) | relative viability (TPCA-1 + Tozasertib; first compound 0.4 µM) | relative viability (TPCA-1 + Tozasertib; first compound 1.265 µM) | relative viability (TPCA-1 + Tozasertib; first compound 4 µM) | relative viability ([1]; first compound 0.005 µM) | relative viability ([1]; first compound 0.01581 µM) | relative viability ([1]; first compound 0.05 µM) | relative viability ([1]; first compound 0.1581 µM) | relative viability ([1]; first compound 0.5 µM) | relative viability (Lestaurtinib + Alpelisib; first compound 0.005 µM) | relative viability (Lestaurtinib + Alpelisib; first compound 0.01581 µM) | relative viability (Lestaurtinib + Alpelisib; first compound 0.05 µM) | relative viability (Lestaurtinib + Alpelisib; first compound 0.1581 µM) | relative viability (Lestaurtinib + Alpelisib; first compound 0.5 µM) | relative viability ([2]; first compound 0.005 µM) | relative viability ([2]; first compound 0.01581 µM) | relative viability ([2]; first compound 0.05 µM) | relative viability ([2]; first compound 0.1581 µM) | relative viability ([2]; first compound 0.5 µM)
SK-LU-1 | 0.333 | 0.297 | 0.309 | 0.253 | 0.248 | 0.634 | 0.607 | 0.48 | 0.424 | 0.349 | 0.652 | 0.613 | 0.436 | 0.536 | 0.258 | 0.333 | 0.335 | 0.356 | 0.3 | 0.288
LOU-NH91 | 0.769 | 0.57 | 0.639 | 0.602 | 0.423 | 0.818 | 0.816 | 0.804 | 0.679 | 0.659 | 0.757 | 0.666 | 0.623 | 0.472 | 0.416 | 0.567 | 0.524 | 0.586 | 0.558 | 0.522
LXF-289 | 0.248 | 0.203 | 0.201 | 0.169 | 0.122 | 0.312 | 0.428 | 0.374 | 0.364 | 0.315 | 1.05 | 1.09 | 0.695 | 0.91 | 0.178 | 0.624 | 0.633 | 0.443 | 0.49 | 0.234
NCI-H1299 | – | – | – | – | – | – | – | – | – | – | 1.14 | 1.05 | 0.559 | 0.614 | 0.713 | – | – | – | – | –
HARA | 0.136 | 0.118 | 0.0913 | 0.0917 | 0.0916 | 0.699 | 0.749 | 0.613 | 0.513 | 0.214 | 0.769 | 0.825 | 0.639 | 0.487 | 0.176 | 0.233 | 0.32 | 0.278 | 0.234 | 0.243
LU99A | 0.276 | 0.276 | 0.226 | 0.242 | 0.199 | 0.711 | 0.84 | 0.572 | 0.366 | 0.276 | 0.413 | 0.488 | 0.233 | 0.283 | 0.192 | 0.371 | 0.392 | 0.285 | 0.271 | 0.185
201T | 0.958 | 0.924 | 1.05 | 0.976 | 0.636 | 0.858 | 0.93 | 0.98 | 0.934 | 0.926 | 1.04 | 1.03 | 1.02 | 0.933 | 0.693 | 0.398 | 0.45 | 0.364 | 0.405 | 0.399
HCC-827 | 0.472 | 0.42 | 0.389 | 0.443 | 0.272 | 0.298 | 0.38 | 0.331 | 0.367 | 0.282 | 0.948 | 0.905 | 0.862 | 0.585 | 0.311 | 0.533 | 0.489 | 0.444 | 0.382 | 0.43
NCI-H1666 | 0.627 | 0.598 | 0.635 | 0.543 | 0.461 | 0.769 | 0.807 | 0.944 | 0.912 | 0.704 | 0.915 | 1.05 | 1.02 | 0.493 | 0.442 | 0.705 | 0.704 | 0.638 | 0.74 | 0.646
NCI-H1915 | 0.435 | 0.428 | 0.435 | 0.362 | 0.229 | 0.275 | 0.266 | 0.284 | 0.263 | 0.217 | 1.06 | 1.05 | 1.04 | 0.761 | 0.376 | 0.564 | 0.719 | 0.481 | 0.323 | 0.231
NCI-H2009 | 0.8 | 0.686 | 0.834 | 0.649 | 0.545 | 0.373 | 0.392 | 0.399 | 0.36 | 0.347 | 1.27 | 1.12 | 0.971 | 1.05 | 0.673 | 0.221 | 0.226 | 0.183 | 0.194 | 0.133
ChaGo-K-1 | 0.232 | 0.237 | 0.251 | 0.226 | 0.207 | 0.553 | 0.574 | 0.51 | 0.463 | 0.461 | – | – | – | – | – | 0.977 | 0.89 | 0.77 | 0.779 | 0.671
COR-L 105 | 0.398 | 0.355 | 0.309 | 0.349 | 0.335 | 0.687 | 0.663 | 0.582 | 0.505 | 0.385 | 1.07 | 0.926 | 0.773 | 0.583 | 0.248 | 0.434 | 0.425 | 0.376 | 0.419 | 0.348
NCI-H2170 | 0.731 | 0.644 | 0.718 | 0.66 | 0.387 | 0.461 | 0.489 | 0.441 | 0.43 | 0.383 | 0.698 | 0.707 | 0.592 | 0.699 | 0.404 | 0.325 | 0.379 | 0.275 | 0.394 | 0.218

From the supplement of paper PMC10307832
